Experiment: Snapshot pharmacokinetic study in mice
Type: in vivo, Balb/c mice
Description: Compound Se 2h was administered intravenously (5 mg/kg in 10% dimethyl sulfoxide, 30% propylene glycol, 30% PEG 400, and 30% of 10.0% Tween 80 in DI water) and by oral gavage (50 mg/kg in PEG 400 with 5% 1-methyl-2-pyrrolidone) in two female Balb/c mice (6 weeks old) for each group. Blood samples (∼25 μL) were collected with heparinized capillary tubes via the eye vein on mice anesthetized with isoflurane precompound administration and in the following times post administration: 30 min, 1 h, 2 h, 4 h. Samples were immediately centrifuged for plasma collection (supernatant). The animal experiment was approved by the UC San Diego IACUC committee under the protocol S14187 and follow all the ethical standards. The material was submitted for mass spectrometry quantification with provided known amounts spiked in naïve plasma for reference curve.

## C/C(=N\Nc1nc(C)c[se]1)c1cccc([N+](=O)[O-])c1.Cl [Se2h, (E)-4-Methyl-2-(2-(1-(3-nitrophenyl)ethylidene)hydrazineyl)-1,3-selenazole Hydrochloride]
5 mg/kg intravenous and 50 mg/kg oral
  acute toxicity in the PK study: no signs of acute toxicity
female, Balb/c, mouse, plasma, 50 mg/kg oral vs 5 mg/kg intravenous
  bioavailability: 82%
female, Balb/c, mouse, plasma, oral dose 50 mg/kg
  Cmax at 0.5 h: 2300 nM
female, Balb/c, mouse, plasma, other: intravenous and oral, 5 mg/kg intravenous and 50 mg/kg oral, read-out: half-life (T 1/2)
  half-life: < 1 h
Oral dose 50 mg/kg
  time of C max post administration: 30 min
